Measurements: PubChem BioAssay AID720699 (NMMLSC, 2013)

Test: incubation effect on Rab7 inhibitor curves, late-stage follow-up, mechanism study, biochemical, Rab7 wildtype, bead flow cytometry, two incubation protocols (AID 720699)
Conditions: Rab7 beads, Bodipy-FL-GTP binding

EC50 (protocol A) [nM] | EC50 (protocol B) [nM] | SMILES
1260 | 1220 | CC1(C)Cc2c(sc(NC(=S)NC(=O)c3cccc(N=[N+]=[N-])c3)c2C(=O)O)CO1
219 | 172 | CC1(C)Cc2c(sc(NC(=S)NC(=O)c3ccc(N=[N+]=[N-])cc3)c2C(=O)O)CO1
